Measurements: ChEMBL document CHEMBL1201862, “PubChem BioAssay data set” (2004)
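These data come from cells grown in 96-well plates and exposed to compound for 48 hours at five concentrations. Abbreviation: GI50, concentration required for 50% inhibition of growth.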 Calls of active or inactive are those of the source. Cut-off read from the data, not from the text of the source: active = GI50 up to about 1.1 µM and inactive = higher.

Tests used:
Experiment in all cases: inhibition of tumour cell growth, NCI panel, 48 h
[1] = tested on: COLO 205
[2] = tested on: HT-29
[3] = tested on: MDA-MB-231
[4] = tested on: DU-145
[5] = tested on: PC-3
[6] = tested on: SK-MEL-2
[7] = tested on: OVCAR-3
[8] = tested on: CCRF-CEM
[9] = tested on: NCI/ADR-RES
[10] = tested on: TK-10
[11] = tested on: SNB-75
[12] = tested on: NCI-H522
[13] = tested on: MOLT-4
[14] = tested on: A498
[15] = tested on: MCF7
[16] = tested on: 786-0
[17] = tested on: SF-539
[18] = tested on: SF-295
[19] = tested on: HOP-62
[20] = tested on: OVCAR-8

## C=CC(C)(O)CCC1C(=C)C(O)CC2C(C)(C)CCCC12C (stereo not drawn)
[1]
  GI50: 16 µM (inactive)
[2]
  GI50: 17.8 µM (inactive)
[3]
  GI50: 17.7 µM (inactive)
[4]
  GI50: 18.2 µM (inactive)
[5]
  GI50: 15.3 µM (inactive)
[6]
  GI50: 16.3 µM (inactive)
[7]
  GI50: 18.9 µM (inactive)
[8]
  GI50: 18.5 µM (inactive)
[9]
  GI50: 18.5 µM (inactive)
[10]
  GI50: 20 µM (inactive)
[11]
  GI50: 48.3 µM (inactive)
[12]
  GI50: 17.6 µM (inactive)
[13]
  GI50: 14.2 µM (inactive)
[14]
  GI50: 18.3 µM (inactive)
[15]
  GI50: 23.2 µM (inactive)
[16]
  GI50: 18.6 µM (inactive)
[17]
  GI50: 17.9 µM (inactive)
[18]
  GI50: 21.1 µM (inactive)
[19]
  GI50: 20.6 µM (inactive)
[20]
  GI50: 26.1 µM (inactive)

## CCOC(=O)C(SCCO)C(C(=O)OCC)n1cc(C)c(=O)[nH]c1=O (stereo not drawn)
[1]
  GI50: 10 µM (inactive)
[2]
  GI50: 12.9 µM (inactive)
[3]
  GI50: 15.9 µM (inactive)
[4]
  GI50: > 74.6 µM (inactive)
[5]
  GI50: 13.9 µM (inactive)
[6]
  GI50: 19.6 µM (inactive)
[7]
  GI50: 12.5 µM (inactive)
[8]
  GI50: 2.42 µM (inactive)
[9]
  GI50: 24.8 µM (inactive)
[10]
  GI50: 24.9 µM (inactive)
[11]
  GI50: 34.1 µM (inactive)
[12]
  GI50: 3.3 µM (inactive)
[13]
  GI50: 4.81 µM (inactive)
[14]
  GI50: 20.4 µM (inactive)
[15]
  GI50: 11.6 µM (inactive)
[16]
  GI50: 3.88 µM (inactive)
[17]
  GI50: 23.1 µM (inactive)
[18]
  GI50: > 79.4 µM (inactive)
[19]
  GI50: > 61.2 µM (inactive)
[20]
  GI50: 14.1 µM (inactive)

## CC(C)(C)OC(=O)n1c(-c2ccccc2F)cc(=O)c2cc3c(cc21)OCO3
[1]
  GI50: 0.0942 µM (active)
[2]
  GI50: 0.0497 µM (active)
[3]
  GI50: 3.68 µM (inactive)
[4]
  GI50: 0.0451 µM (active)
[5]
  GI50: 0.0391 µM (active)
[6]
  GI50: 0.0531 µM (active)
[7]
  GI50: 0.03 µM (active)
[8]
  GI50: 0.0638 µM (active)
[9]
  GI50: 0.0231 µM (active)
[10]
  GI50: 4.66 µM (inactive)
[11]
  GI50: 0.0318 µM (active)
[12]
  GI50: 0.0267 µM (active)
[13]
  GI50: 0.106 µM (active)
[14]
  GI50: 0.141 µM (active)
[15]
  GI50: 0.0413 µM (active)
[16]
  GI50: 0.0541 µM (active)
[17]
  GI50: 0.0736 µM (active)
[18]
  GI50: 0.05 µM (active)
[19]
  GI50: 0.0863 µM (active)
[20]
  GI50: 0.0906 µM (active)

## CSC(=S)NN=C1CCCCC1
[1]
  GI50: 47.1 µM (inactive)
[2]
  GI50: 47.6 µM (inactive)
[3]
  GI50: 17.6 µM (inactive)
[4]
  GI50: 27.4 µM (inactive)
[5]
  GI50: 30.8 µM (inactive)
[6]
  GI50: 52.6 µM (inactive)
[7]
  GI50: 22.3 µM (inactive)
[8]
  GI50: 26.1 µM (inactive)
[9]
  GI50: 24.7 µM (inactive)
[10]
  GI50: 24.9 µM (inactive)
[11]
  GI50: 50.6 µM (inactive)
[12]
  GI50: 24.8 µM (inactive)
[13]
  GI50: 15.7 µM (inactive)
[14]
  GI50: > 100 µM (inactive)
[15]
  GI50: 33.8 µM (inactive)
[16]
  GI50: 37.3 µM (inactive)
[17]
  GI50: 24.4 µM (inactive)
[18]
  GI50: 28.4 µM (inactive)
[19]
  GI50: 47.3 µM (inactive)
[20]
  GI50: 8.93 µM (inactive)

## O=C(OC1CN2CCC1CC2)N(c1ccccc1)c1ccccc1 (stereo not drawn)
[1]
  GI50: 43.1 µM (inactive)
[2]
  GI50: 44.9 µM (inactive)
[3]
  GI50: 54 µM (inactive)
[4]
  GI50: > 100 µM (inactive)
[5]
  GI50: 69.2 µM (inactive)
[6]
  GI50: > 100 µM (inactive)
[7]
  GI50: > 100 µM (inactive)
[8]
  GI50: 54.7 µM (inactive)
[9]
  GI50: > 100 µM (inactive)
[10]
  GI50: 56.2 µM (inactive)
[11]
  GI50: 46.2 µM (inactive)
[12]
  GI50: > 100 µM (inactive)
[13]
  GI50: 43.1 µM (inactive)
[14]
  GI50: 24.7 µM (inactive)
[15]
  GI50: 74.8 µM (inactive)
[16]
  GI50: > 100 µM (inactive)
[17]
  GI50: 68.4 µM (inactive)
[18]
  GI50: 51.1 µM (inactive)
[19]
  GI50: 80.5 µM (inactive)
[20]
  GI50: > 100 µM (inactive)

## c1n[nH]cc1C12C3C4C5C3C1C5C42 (stereo not drawn)
[1]
  GI50: > 100 µM (inactive)
[2]
  GI50: > 100 µM (inactive)
[3]
  GI50: > 100 µM (inactive)
[4]
  GI50: > 100 µM (inactive)
[5]
  GI50: > 100 µM (inactive)
[6]
  GI50: > 100 µM (inactive)
[7]
  GI50: > 100 µM (inactive)
[8]
  GI50: > 100 µM (inactive)
[9]
  GI50: > 100 µM (inactive)
[10]
  GI50: > 100 µM (inactive)
[11]
  GI50: 69.2 µM (inactive)
[12]
  GI50: > 100 µM (inactive)
[13]
  GI50: > 100 µM (inactive)
[14]
  GI50: > 100 µM (inactive)
[15]
  GI50: > 100 µM (inactive)
[16]
  GI50: > 100 µM (inactive)
[17]
  GI50: > 100 µM (inactive)
[18]
  GI50: > 100 µM (inactive)
[19]
  GI50: > 100 µM (inactive)
[20]
  GI50: > 100 µM (inactive)

## CN1CCc2c3n(c4cc(Br)ccc24)[C@H](O)CCCC31 (stereo partly drawn)
[1]
  GI50: 1.78 µM (inactive)
[2]
  GI50: 1.81 µM (inactive)
[3]
  GI50: 2.13 µM (inactive)
[4]
  GI50: > 10 µM (inactive)
[5]
  GI50: 5.89 µM (inactive)
[6]
  GI50: 0.736 µM (active)
[7]
  GI50: > 7.5 µM (inactive)
[8]
  GI50: 1.87 µM (inactive)
[9]
  GI50: 4.97 µM (inactive)
[10]
  GI50: > 7.36 µM (inactive)
[11]
  GI50: 2.3 µM (inactive)
[12]
  GI50: 1.49 µM (inactive)
[13]
  GI50: 1.95 µM (inactive)
[14]
  GI50: 4.11 µM (inactive)
[15]
  GI50: 1.78 µM (inactive)
[16]
  GI50: 1.7 µM (inactive)
[17]
  GI50: 1.9 µM (inactive)
[18]
  GI50: 1.77 µM (inactive)
[19]
  GI50: > 10 µM (inactive)
[20]
  GI50: 1.79 µM (inactive)

## CCOC(=O)c1c(-c2cccc3ccccc23)c(C#N)c(=S)n(C2OC(COC(C)=O)C(OC(C)=O)C(OC(C)=O)C2OC(C)=O)c1C (stereo not drawn)
[1]
  GI50: > 100 µM (inactive)
[2]
  GI50: > 100 µM (inactive)
[3]
  GI50: > 100 µM (inactive)
[4]
  GI50: > 100 µM (inactive)
[5]
  GI50: 15.8 µM (inactive)
[6]
  GI50: 64.1 µM (inactive)
[7]
  GI50: > 100 µM (inactive)
[8]
  GI50: > 100 µM (inactive)
[9]
  GI50: > 100 µM (inactive)
[10]
  GI50: > 100 µM (inactive)
[11]
  GI50: 13.7 µM (inactive)
[12]
  GI50: > 100 µM (inactive)
[13]
  GI50: > 100 µM (inactive)
[14]
  GI50: > 100 µM (inactive)
[15]
  GI50: > 100 µM (inactive)
[16]
  GI50: > 100 µM (inactive)
[17]
  GI50: > 100 µM (inactive)
[18]
  GI50: > 100 µM (inactive)
[19]
  GI50: > 100 µM (inactive)
[20]
  GI50: > 100 µM (inactive)

## S=C1NC2=C(COC/C2=C\c2ccccc2Cl)C(c2ccccc2Cl)N1 (stereo not drawn)
[1]
  GI50: 18.5 µM (inactive)
[3]
  GI50: > 100 µM (inactive)
[4]
  GI50: 70.8 µM (inactive)
[5]
  GI50: 14.3 µM (inactive)
[6]
  GI50: 21.2 µM (inactive)
[7]
  GI50: 32.1 µM (inactive)
[8]
  GI50: 8.75 µM (inactive)
[9]
  GI50: 21.2 µM (inactive)
[10]
  GI50: 55.8 µM (inactive)
[11]
  GI50: 49.5 µM (inactive)
[12]
  GI50: 29.6 µM (inactive)
[13]
  GI50: 7.5 µM (inactive)
[14]
  GI50: 80 µM (inactive)
[15]
  GI50: 16.4 µM (inactive)
[16]
  GI50: 36 µM (inactive)
[17]
  GI50: 34.9 µM (inactive)
[18]
  GI50: 35.2 µM (inactive)
[19]
  GI50: 61.4 µM (inactive)
[20]
  GI50: 29.8 µM (inactive)

## O=S(=O)(O)c1ccc2c(/N=N/c3c(O)ccc4ccccc34)cccc2c1
[1]
  GI50: > 100 µM (inactive)
[2]
  GI50: > 100 µM (inactive)
[3]
  GI50: > 100 µM (inactive)
[4]
  GI50: > 100 µM (inactive)
[5]
  GI50: > 100 µM (inactive)
[6]
  GI50: > 100 µM (inactive)
[7]
  GI50: 88.9 µM (inactive)
[8]
  GI50: 70.6 µM (inactive)
[9]
  GI50: > 100 µM (inactive)
[10]
  GI50: > 100 µM (inactive)
[11]
  GI50: > 100 µM (inactive)
[12]
  GI50: > 100 µM (inactive)
[14]
  GI50: > 100 µM (inactive)
[15]
  GI50: > 100 µM (inactive)
[16]
  GI50: > 100 µM (inactive)
[17]
  GI50: > 100 µM (inactive)
[18]
  GI50: > 100 µM (inactive)
[19]
  GI50: > 100 µM (inactive)
[20]
  GI50: > 100 µM (inactive)
